Measured values as given in US12521394B2, “Therapeutic compositions and methods for treating cancers” (Pattern Computer, Inc., priority 2019, dated 2026).

Test system: Non-malignant S1 cells
Assay: 3D LrECM culture translational assay, Live/Dead viability/cytotoxicity (Calcein AM/EthD-1), non-malignant cells
Assay type: cell-based
Details: 3D culture, FIG. 8B
Method: Twenty-one compounds were received and reconstituted to yield 10 mM stock solution. Compounds were independently tested on a 2D culture assay to determine cell survival. Combinations of compounds were then tested on a 6×6 matrix on 2D culture to determine synergistic dosing. Then functional validation of the synergistic combinations was determined in 3D culture. (See FIG. 2).
Non-malignant S1 and Malignant T4-2 cells were evaluated for growth inhibition or cell death with the determined concentrations. The cells were plated at a density of 2×10^4 (S1) or 1×10^4 (T4-2) cells per well on top of Matrigel layer and allowed to form multicellular tumor colonies for 4-5 days. Then the cells were treated with either single-drug or drug combinations as PCI designed to evaluate synergistic interactions. Fresh media containing testing drugs were replenished every other day. At the end of the assay, we analyzed morphology and viability/cytotoxicity using phase imaging and fluorescent detection with Live/Dead using viability/cytotoxicity (Calcein AM/EthD-1) kit (FIG. 8). 3D translational assay in non-malignant S1 and malignant T4-2 cells were repeated 3 times.

COC[C@H](NC(=O)c1cnc(C)s1)C(=O)N[C@@H](COC)C(=O)N[C@@H](Cc1ccccc1)C(=O)[C@@]1(C)CO1 [Oprozomib, N-[(2S)-3-methoxy-1-[[(2S)-3-methoxy-1-[[(2S)-1-[(2R)-2-methyloxiran-2-yl]-1-oxo-3-phenylpropan-2-yl]amino]-1-oxopropan-2-yl]amino]-1-oxopropan-2-yl]-2-methyl-1,3-thiazole-5-carboxamide]
cell proliferation in non-malignant S1 cells: promoted cell proliferation
